From the supplement of paper PMC12317010

Test: collision cross section in nitrogen (drift tube, single-field); higher = larger gas-phase ion size
[1] = ion type: [M+H], ion source: APCI, ion mode: Positive
[2] = ion type: [M+H], ion source: ESI, ion mode: Positive
[3] = ion type: [M+Na], ion source: ESI, ion mode: Positive
[4] = ion type: [M+], ion source: APCI, ion mode: Positive
[5] = ion type: [M-H], ion source: ESI, ion mode: Negative
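Note: chemical standards at 10 µM analysed by drift tube IMS-QTOF MS in about 3.95 torr nitrogen, mean of duplicate injections differing ≤1%, mass error below 10 ppm.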

Row | Compound | collision cross section in nitrogen [1] | collision cross section in nitrogen [2] | collision cross section in nitrogen [5] | further results
1 | c1cc(N(CC2CO2)CC2CO2)ccc1Cc1ccc(N(CC2CO2)CC2CO2)cc1 (centres undefined) [4,4'-Methylenebis(N,N-diglycidylaniline)] | 215.7 Å² | 215.2 Å² |  | collision cross section in nitrogen [3]: 199.7 Å²
2 | CN(C)c1ccc(Cc2ccc(N(C)C)cc2)cc1 [4,4'-Methylenebis(N,N-dimethylaniline)] | 175.3 Å² | 174.8 Å² |  | 
3 | Cc1cc(Cc2ccc(N)c(C)c2)ccc1N [4,4'-Methylenebis(o-toluidine)] | 179.1 Å² | 171.2 Å² |  | 
4 | Nc1ccc(Oc2ccc(N)cc2)cc1 [4,4'-Oxydianiline] | 167.4 Å² | 160.7 Å² |  | collision cross section in nitrogen [4]: 146.6 Å²
5 | c1cc(CCCc2ccncc2)ccn1 [4,4'-Propane-1,3-diyldipyridine] | 146.1 Å² | 145.7 Å² |  | 
6 | Cc1cc(C(C)(C)c2cc(C)c(O)c(C)c2)cc(C)c1O [4,4'-Propane-2,2-diylbis(2,6-dimethylphenol)] |  |  | 182.9 Å² | 
7 | C=CCc1cc(S(=O)(=O)c2ccc(O)c(CC=C)c2)ccc1O [4,4'-Sulfonylbis[2-(prop-2-en-1-yl)phenol]] |  | 182.5 Å² |  | collision cross section in nitrogen [3]: 197.2 Å²
8 | Nc1ccc(Sc2ccc(N)cc2)cc1 [4,4'-Thiodianiline] | 164.9 Å² | 164.4 Å² |  | collision cross section in nitrogen [4]: 148.1 Å²
9 | CC(CCC(=O)O)(c1ccc(O)cc1)c1ccc(O)cc1 [4,4-Bis(4-hydroxyphenyl)valeric acid] |  |  | 177.5 Å² | 
10 | Nc1ccc(-c2ccc(N)cc2)cc1 [4,4′-Diamino-1,1′-biphenyl] | 156.9 Å² | 157 Å² |  | collision cross section in nitrogen [4]: 139.4 Å²
11 | CC(C)(C)CC(C)(C)c1ccc(O)cc1 [4-(1,1,3,3-Tetramethylbutyl)phenol] |  |  | 157.1 Å² | 
12 | CC(C)(C)c1ccc(O)cc1 [4-(1,1-Dimethylethyl)phenol] |  |  | 139.5 Å² | 
13 | CCOc1cc([N+](=O)[O-])c(OCC)cc1N1CCOCC1 [4-(2,5-Diethoxy-4-nitrophenyl)morpholine] | 173.1 Å² | 173.2 Å² |  | 
14 | CCC(C)(C)c1ccc(O)cc1 [4-(2-Methylbutan-2-yl)phenol] |  |  | 143.8 Å² | 
15 | CC1=NN(c2ccc(C(=O)O)cc2)C(=O)C1 [4-(3-Methyl-5-oxo-4,5-dihydro-1H-pyrazol-1-yl)benzoic acid] |  | 151.6 Å² | 146.2 Å² | 
16 | c1ccc(CCCc2ccncc2)cc1 [4-(3-Phenylpropyl)pyridine] | 145.9 Å² | 146.1 Å² |  | 
17 | CC(C)Oc1ccc(S(=O)(=O)c2ccc(O)cc2)cc1 [4-((4-Isopropoxyphenyl)sulfonyl)phenol] | 180.9 Å² | 171.8 Å² | 174.8 Å² | collision cross section in nitrogen [3]: 187.9 Å²
18 | CCN(CC)c1ccc(C=O)cc1 [4-(Diethylamino)benzaldehyde] | 139.4 Å² | 140.3 Å² |  | 
19 | CCN(CC)c1ccc(C=O)c(O)c1 [4-(Diethylamino)salicylaldehyde] | 142.6 Å² | 143.7 Å² | 147 Å² | 
20 | c1cc(N(CC2CO2)CC2CO2)ccc1OCC1CO1 (centres undefined) [4-(Diglycidylamino)phenyl glycidyl ether] | 167.5 Å² | 167 Å² |  | collision cross section in nitrogen [3]: 161.7 Å²
21 | CCCCC(CC)COC(=O)c1ccc(N(C)C)cc1 (centres undefined) [4-(Dimethylamino)benzoic acid 2-ethylhexyl ester] | 185.9 Å² | 185.2 Å² |  | 

Row | Compound | collision cross section in nitrogen [1] | collision cross section in nitrogen [2] | collision cross section in nitrogen [5] | further results
22 | CC1(CO)CN(c2ccccc2)NC1=O (centres undefined) [4-(Hydroxymethyl)-4-methyl-1-phenylpyrazolidin-3-one] |  |  |  | collision cross section in nitrogen [4]: 143.2 Å²
23 | CN(CCCC(O)c1cccnc1)N=O (centres undefined) [4-(Methylnitrosamino)-1-(3-pyridyl)-1-butanol] | 146.4 Å² | 146.4 Å² |  | collision cross section in nitrogen [3]: 152.5 Å²
24 | COc1cc(S(=O)(=O)Nc2ccccc2)c(OC)cc1N [4-Amino-2,5-dimethoxy-N-phenylbenzenesulfonamide] |  |  | 169 Å² | collision cross section in nitrogen [3]: 180.5 Å²; collision cross section in nitrogen [4]: 167.2 Å²
25 | CC(=O)c1ccc(N)cc1 [4-Aminoacetophenone] |  |  | 125 Å² | 
26 | NC(=O)c1ccc(N)cc1 [4-Aminobenzamide] | 126.4 Å² | 126.5 Å² |  | 
27 | Nc1ccc(S(=O)(=O)O)cc1 [4-Aminobenzenesulfonic acid] |  |  | 134.5 Å² | 
28 | Oc1ccc(Nc2ccccc2)cc1 [4-Anilinophenol] |  |  | 147.4 Å² | collision cross section in nitrogen [4]: 140.4 Å²
29 | O=C(Oc1ccc(Br)cc1)N1CCN2CCC1CC2 [4-Bromophenyl 1,4-diazabicyclo(3.2.2)nonane-4-carboxylate] | 177.7 Å² | 178.5 Å² |  | 
30 | CCCCc1ccc(N)cc1 [4-Butylaniline] |  | 149.8 Å² |  | 
31 | CCCCOc1ccc(N)cc1 [4-Butyloxyaniline] |  | 153.5 Å² |  | 
32 | CCCCc1ccc(O)cc1 [4-Butylphenol] |  |  | 140.6 Å² | 
33 | Cc1cc(Cl)ccc1O [4-Chloro-2-methylphenol] |  |  | 124.8 Å² | 
34 | Cc1cc(O)cc(C)c1Cl [4-Chloro-3,5-dimethylphenol] |  |  | 131.7 Å² | 
35 | Cc1cc(O)ccc1Cl [4-Chloro-3-methylphenol] |  |  | 125.9 Å² | 
36 | Nc1ccc(Cl)c([N+](=O)[O-])c1 [4-Chloro-3-nitroaniline] |  |  | 126.1 Å² | 
37 | NS(=O)(=O)c1ccc(Cl)cc1 [4-Chlorobenzenesulphonamide] |  |  | 134.9 Å² | 
38 | O=S(=O)(O)c1ccc(Cl)cc1 [4-Chlorobenzenesulphonic acid] |  |  | 133.5 Å² | 
39 | O=C(c1ccccc1)c1ccc(Cl)cc1 [4-Chlorobenzophenone] |  |  |  | collision cross section in nitrogen [3]: 151.1 Å²
40 | O=C(O)c1cc[c]([Hg][Cl])cc1 [4-Chloromercuribenzoic acid] |  |  | 143 Å² | 
41 | Oc1ccc(Cl)cc1 [4-Chlorophenol] |  |  | 120.2 Å² | 
42 | O=C(O)COc1ccc(Cl)cc1 [4-Chlorophenoxyacetic acid] |  |  | 140.9 Å² | 

Row | Compound | collision cross section in nitrogen [1] | collision cross section in nitrogen [2] | collision cross section in nitrogen [5] | further results
43 | N#CCc1ccc(Cl)cc1 [4-Chlorophenylacetonitrile] |  |  | 130.4 Å² | 
44 | [O-][n+]1ccc(Cl)cc1 [4-Chloropyridine 1-oxide] |  | 121.6 Å² | 117.2 Å² | 
45 | Oc1ccc(Cl)c(O)c1 [4-Chlororesorcinol] |  |  | 122.5 Å² | 
46 | CC(C)(c1ccccc1)c1ccc(O)cc1 [4-Cumylphenol] |  |  | 157.8 Å² | 
47 | N#Cc1ccc(C(=O)O)cc1 [4-Cyanobenzoic acid] |  |  | 142.1 Å² | 
48 | Cc1c(N(C)C)c(=O)n(-c2ccccc2)n1C [4-Dimethylaminoantipyrine] | 152.1 Å² | 152.5 Å² |  | collision cross section in nitrogen [3]: 166.2 Å²
49 | CN(C)c1ccc(C=O)cc1 [4-Dimethylaminobenzaldehyde] | 129.3 Å² | 129 Å² |  | 
50 | CCCCCCCCCCCCN1CCOCC1 [4-Dodecylmorpholine] | 176.3 Å² | 176.3 Å² |  | 
51 | CCOc1ccc(N)cc1 [4-Ethoxyaniline] |  | 139.8 Å² |  | 
52 | CCc1ccc(O)cc1 [4-Ethylphenol] |  |  | 128.7 Å² | collision cross section in nitrogen [4]: 123.4 Å²
53 | Nc1ccc(F)c([N+](=O)[O-])c1 [4-Fluoro-3-nitroaniline] |  |  | 121.9 Å² | 
54 | CCCCCCCc1ccc(O)cc1 [4-Heptylphenol] |  |  | 157.1 Å² | 
55 | CCCCCCc1ccc(N)cc1 [4-Hexylaniline] | 162.8 Å² | 162.8 Å² |  | 
56 | CCCCCCOc1ccc(N)cc1 [4-Hexyloxyaniline] | 168 Å² | 167.4 Å² |  | 
57 | CCCCCCc1ccc(O)cc1O [4-Hexylresorcinol] |  |  | 150.2 Å² | 
58 | COc1cc(C=O)ccc1O [4-Hydroxy-3-methoxybenzaldehyde] |  |  | 128.1 Å² | 
59 | COc1cnccc1O [4-Hydroxy-3-methoxypyridine] | 120.7 Å² | 121.8 Å² |  | 
60 | O=[N+]([O-])c1cc([As](=O)(O)O)ccc1O [4-Hydroxy-3-nitrophenylarsonic acid] |  | 145 Å² | 141.8 Å² | 
61 | O=S(=O)(O)c1cc(O)c2ccc(Nc3ccccc3)cc2c1 [4-Hydroxy-7-(phenylamino)naphthalene-2-sulfonic acid] |  |  | 180.6 Å² | 
62 | CC(=O)c1ccc(O)cc1 [4-Hydroxyacetophenone] |  |  | 125.5 Å² | 
63 | C[C@]12CCC(=O)C(O)=C1CC[C@@H]1[C@@H]2CC[C@]2(C)C(=O)CC[C@@H]12 [4-Hydroxyandrostenedione] |  |  | 180 Å² | 
